According to US20240148821A1, “PHARMACEUTICAL USE OF CYCLIC PEPTIDE COMPOUND” (CHUGAI SEIYAKU KABUSHIKI KAISHA, priority 2021, published 2024):
pIC50: −log10 of the molar value. Numbered stars: 1 amine (or outer) side, 2 acyl side, 3 side chain; on linkers, the order of the positions; unused ones are H or OH. Bridge positions count the residues as written; N and C are the ends. Square brackets hold non-standard residues; d marks the D form. Peptide text beside a SMILES is read from it. * marks the point of attachment. hPhe(3-Cl-4-CF3) = N[C@@H](CCc1ccc(C(F)(F)F)c(Cl)c1)C(=O)O; hPhe(3-F,4-CF3) = N[C@@H](CCc1ccc(C(F)(F)F)c(F)c1)C(=O)O; NMePhe(4-CF3) = CN[C@@H](Cc1ccc(C(F)(F)F)cc1)C(=O)O; NMePhe(4-Cl) = CN[C@@H](Cc1ccc(Cl)cc1)C(=O)O; NMePhe(4-Me) = CN[C@@H](Cc1ccc(C)cc1)C(=O)O; X110 = Cc1ccc(I)cc1C[C@H](N[*:1])C(=O)[*:2]; NMeAla(cPent) = CN[C@@H](CC1CCCC1)C(=O)O; NMeGly(cPent) = CN[C@H](C(=O)O)C1CCCC1; Phe(3-I) = N[C@@H](Cc1cccc(I)c1)C(=O)O; NMe4Pal = CN[C@@H](Cc1ccncc1)C(=O)O; NMeY = CN[C@@H](Cc1ccc(O)cc1)C(=O)O; NMeCha = CN[C@@H](CC1CCCCC1)C(=O)O; NMeI = CC[C@H](C)[C@H](NC)C(=O)O; NMeD = CN[C@@H](CC(=O)O)C(=O)O; NMeL = CN[C@@H](CC(C)C)C(=O)O; Cba = N[C@@H](CC1CCC1)C(=O)O; Chg = N[C@H](C(=O)O)C1CCCCC1; NMeV = CN[C@H](C(=O)O)C(C)C; d(β3hA) = C[C@@H](N)CC(=O)O; NMeAbu = CC[C@H](NC)C(=O)O; NMeS = CN[C@@H](CO)C(=O)O; Morpholide = C1CN(*)CCO1; NMeA = CN[C@@H](C)C(=O)O; NMeAib = CNC(C)(C)C(=O)O; Nle = CCCC[C@H](N)C(=O)O; Piperidide = C1CCN(*)CC1; Pra = C#CC[C@H](N)C(=O)O; Ac5c = NC1(C(=O)O)CCCC1; Aze = O=C(O)[C@@H]1CCN1; Ac4c = NC1(C(=O)O)CCC1; Cyclobutyl = C1CC(*)C1; CF3 = FC(F)(F)*; Sar = CNCC(=O)O; Propyl = CCC*

What follows are molecules tested on Human pancreatic cancer cell line AsPC-1 (G12D mutation Kras) (assay: AsPC-1 cell growth inhibition (AsPC-1 CGI)). Details: read-out: AsPC-1 cell growth inhibition, 50% growth inhibitory concentration (IC50 value); 96 hours, CellTiter-Glo, values classified in ranges.
Assay type: cell-based
Description: Test compounds were serially dilated with dimethyl sulfoxide, and 200 nL was then dispensed to a U-bottom 96-well plate using Labcyte Echo. […] The cell suspension was dispensed to a. plate containing a test compound at 100 μL per well and incubated at 37° C. in a 5% carbon dioxide gas incubator. 96 hours later, 80 μL of CellTiter-Glo (Promega) was added to each well and fluorescence was measured.

SMILES	pIC50
CCCC[C@@H]1NC(=O)[C@H](CCc2ccc(C(F)(F)F)c(Cl)c2)NC(=O)CN(C)C(=O)[C@H](CC2CCCC2)N(C)C(=O)[C@@H]2CCN2C(=O)[C@H](C)N(C)C(=O)[C@H]([C@@H](C)CC)NC(=O)[C@H](CC(C)C)N(C)C(=O)C[C@@H](C(=O)N2CCCCC2)N(C)C(=O)[C@H](CC(C)C)NC(=O)C(C)(C)N(C)C1=O [Compound 691] ([NMeL]I[NMeA][Aze][NMeAla(cPent)][Sar][hPhe(3-Cl-4-CF3)][Nle][NMeAib]L[NMeD]-Piperidide; lactam N-11)	< 6.30
C#CC[C@@H]1NC(=O)[C@H](CC(C)C)N(C)C(=O)C[C@@H](C)NC(=O)[C@H](CC(C)C)N(C)C(=O)C2(CCCC2)NC(=O)[C@@H]2CCCN2C(=O)[C@H](CCc2ccc(C(F)(F)F)c(F)c2)NC(=O)CN(C)C(=O)[C@H](CC2CCCCC2)N(C)C(=O)CN(C)C(=O)CN(C)C1=O [Compound 1533] (cyclo([Ac5c][NMeL][d(β3hA)][NMeL][Pra][Sar][Sar][NMeCha][Sar][hPhe(3-F,4-CF3)]P))	< 6.30
CCCOC[C@H]1C(=O)N(C)[C@H](C(=O)N2CCCCC2)CC(=O)N(C)[C@@H](CC(C)C)C(=O)N[C@@H]([C@@H](C)CC)C(=O)N(C)CC(=O)N(C)CC(=O)N(C)[C@@H](CC2CCCCC2)C(=O)N(C)CC(=O)N[C@@H](CCc2ccc(C(F)(F)F)c(Cl)c2)C(=O)N2CCC[C@H]2C(=O)NC2(CCCC2)C(=O)N1C [Compound 1771] ([NMeL]I[Sar][Sar][NMeCha][Sar][hPhe(3-Cl-4-CF3)]P[Ac5c][NMeS](Propyl)[NMeD]-Piperidide; lactam N-11)	< 6.30
CC[C@H](C)[C@@H]1NC(=O)[C@H](COC)N(C)C(=O)C[C@@H](C(=O)N2CCCCC2)N(C)C(=O)[C@H](C(C)C)N(C)C(=O)C2(CCCC2)NC(=O)[C@@H]2CCCN2C(=O)[C@H](CCc2ccc(C(F)(F)F)c(Cl)c2)NC(=O)CN(C)C(=O)[C@H](CC2CCCCC2)N(C)C(=O)[C@@H]2CCN2C(=O)[C@H](C)N(C)C1=O [Compound 636] ([NMeS](Me)I[NMeA][Aze][NMeCha][Sar][hPhe(3-Cl-4-CF3)]P[Ac5c][NMeV][NMeD]-Piperidide; lactam N-11)	< 6.30
CC[C@H](C)[C@@H]1NC(=O)[C@H](CC2CCCC2)N(C)C(=O)C[C@@H](C(=O)N(C)C)N(C)C(=O)[C@H]([C@@H](C)CC)N(C)C(=O)C2(CCCC2)NC(=O)[C@@H]2CCCN2C(=O)[C@H](CCc2ccc(C(F)(F)F)c(Cl)c2)NC(=O)CN(C)C(=O)[C@H](Cc2ccc(C)cc2)N(C)C(=O)[C@@H]2CCN2C(=O)[C@H](C)NC1=O [Compound 1141] ([NMeAla(cPent)]IA[Aze][NMePhe(4-Me)][Sar][hPhe(3-Cl-4-CF3)]P[Ac5c][NMeI][NMeD]-NMe2; lactam N-11)	≥ 7.70
CC[C@H](C)[C@@H]1NC(=O)[C@H](CC(C)C)N(C)C(=O)C[C@@H](C(=O)N2CCCCC2)N(C)C(=O)[C@H](COC2CCC2)N(C)C(=O)C2(CCCC2)NC(=O)[C@@H]2CCCN2C(=O)[C@H](CCc2ccc(C(F)(F)F)c(Cl)c2)NC(=O)CN(C)C(=O)[C@H](CC2CCCCC2)N(C)C(=O)CN(C)C(=O)CN(C)C1=O [Compound 585] ([NMeL]I[Sar][Sar][NMeCha][Sar][hPhe(3-Cl-4-CF3)]P[Ac5c][NMeS](Cyclobutyl)[NMeD]-Piperidide; lactam N-11)	< 6.30
CC[C@H](C)[C@@H]1NC(=O)[C@H](CC(C)C)N(C)C(=O)C[C@@H](C(=O)N2CCCCC2)N(C)C(=O)[C@H](C2CCCCC2)NC(=O)C2(CCCC2)NC(=O)[C@@H]2CCCN2C(=O)[C@H](CCc2ccc(C(F)(F)F)c(Cl)c2)NC(=O)CN(C)C(=O)[C@H](CC2CCCCC2)N(C)C(=O)CN(C)C(=O)CN(C)C1=O [Compound 1354] ([NMeL]I[Sar][Sar][NMeCha][Sar][hPhe(3-Cl-4-CF3)]P[Ac5c][Chg][NMeD]-Piperidide; lactam N-11)	< 6.30
C#CC[C@@H]1NC(=O)[C@H](Cc2cccc(I)c2)NC(=O)CN(C)C(=O)[C@H](Cc2ccc(C(F)(F)F)cc2)N(C)C(=O)CN(C)C(=O)CN(C)C(=O)[C@H]([C@@H](C)CC)NC(=O)[C@H](CC(C)C)N(C)C(=O)C[C@@H](C(=O)N2CCCCC2)N(C)C(=O)[C@H](CC(C)C)NC(=O)C(C)(C)N(C)C1=O [Compound 1361] ([NMeL]I[Sar][Sar][NMePhe(4-CF3)][Sar][Phe(3-I)][Pra][NMeAib]L[NMeD]-Piperidide; lactam N-11)	< 6.30
COC[C@@H]1NC(=O)[C@H](CC(C)C)N(C)C(=O)C[C@@H](C(=O)N2CCCCC2)N(C)C(=O)[C@H](C(C)C)N(C)C(=O)C2(CCCC2)NC(=O)[C@@H]2CCCN2C(=O)[C@H](CCc2ccc(C(F)(F)F)c(Cl)c2)NC(=O)CN(C)C(=O)[C@H](CC2CCCCC2)N(C)C(=O)[C@@H]2CCN2C(=O)[C@H](C)N(C)C1=O [Compound 7] ([NMeL]S(Me)[NMeA][Aze][NMeCha][Sar][hPhe(3-Cl-4-CF3)]P[Ac5c][NMeV][NMeD]-Piperidide; lactam N-11)	< 6.30
CC[C@H](C)[C@@H]1NC(=O)[C@H](CC(C)C)N(C)C(=O)C[C@@H](C(=O)N(C)C)N(C)C(=O)[C@H]([C@@H](C)CC)N(C)C(=O)[C@H](C(C)C)NC(=O)[C@@H](C)NC(=O)[C@H](CCc2ccc(C(F)(F)F)c(Cl)c2)NC(=O)CN(C)C(=O)[C@H](Cc2ccc(C)cc2)N(C)C(=O)[C@@H]2CCN2C(=O)[C@H](C)N(C)C1=O [Compound 915] ([NMeL]I[NMeA][Aze][NMePhe(4-Me)][Sar][hPhe(3-Cl-4-CF3)][dA]V[NMeI][NMeD]-NMe2; lactam N-11)	< 6.30
CCCC[C@@H]1NC(=O)[C@H](Cc2cc(I)ccc2C)NC(=O)CN(C)C(=O)[C@H](Cc2ccc(OC)cc2)N(C)C(=O)[C@@H]2CCN2C(=O)[C@H](C)N(C)C(=O)[C@H]([C@@H](C)CC)NC(=O)[C@H](CC)N(C)C(=O)C[C@@H](C(=O)N2CCCCC2)N(C)C(=O)[C@H](CC(C)C)NC(=O)C(C)(C)N(C)C1=O [Compound 1358] ([NMeAbu]I[NMeA][Aze][NMeY](Me)[Sar][X110][Nle][NMeAib]L[NMeD]-Piperidide; lactam N-11)	< 6.30
CC[C@H](C)[C@@H]1NC(=O)[C@H](CC(C)C)N(C)C(=O)C[C@@H](C(=O)N2CCCCC2)N(C)C(=O)[C@H](CC(C)C)N(C)C(=O)C2(CCCC2)NC(=O)[C@@H]2CCCN2C(=O)[C@H](CCc2ccc(C(F)(F)F)c(F)c2)NC(=O)CN(C)C(=O)[C@H](Cc2ccc(Cl)cc2)N(C)C(=O)CN(C)C(=O)CN(C)C1=O [Compound 1061] ([NMeL]I[Sar][Sar][NMePhe(4-Cl)][Sar][hPhe(3-F,4-CF3)]P[Ac5c][NMeL][NMeD]-Piperidide; lactam N-11)	< 6.30
CC[C@H](C)[C@@H]1NC(=O)[C@H](C)N(C)C(=O)C[C@@H](C)NC(=O)[C@H](C2CCCC2)N(C)C(=O)C2(CCC2)NC(=O)[C@@H]2CCCN2C(=O)[C@H](CCc2ccc(C(F)(F)F)c(Cl)c2)NC(=O)CN(C)C(=O)[C@H](CC2CCCCC2)N(C)C(=O)CN(C)C(=O)CN(C)C1=O [Compound 1506] (cyclo([Ac4c][NMeGly(cPent)][d(β3hA)][NMeA]I[Sar][Sar][NMeCha][Sar][hPhe(3-Cl-4-CF3)]P))	< 6.30
CCCOC[C@H]1C(=O)N(C)CC(=O)N[C@@H](CCc2ccc(C(F)(F)F)c(F)c2)C(=O)N2CCC[C@H]2C(=O)NC2(CCCC2)C(=O)N(C)[C@@H](C2CCCC2)C(=O)N(C)[C@H](C(=O)N2CCOCC2)CC(=O)N(C)[C@@H](CC(C)C)C(=O)N[C@@H]([C@@H](C)CC)C(=O)N(C)[C@@H](C)C(=O)N2CC[C@H]2C(=O)N1C [Compound 9] ([NMeL]I[NMeA][Aze][NMeS](Propyl)[Sar][hPhe(3-F,4-CF3)]P[Ac5c][NMeGly(cPent)][NMeD]-Morpholide; lactam N-11)	≥ 7.70
CC[C@H](C)[C@@H]1NC(=O)[C@H](CC(C)C)N(C)C(=O)C[C@@H](C(=O)N2CCCCC2)N(C)C(=O)[C@H](CC)N(C)C(=O)C2(CCCC2)NC(=O)[C@@H]2CCCN2C(=O)[C@H](CCc2ccc(C(F)(F)F)c(Cl)c2)NC(=O)CN(C)C(=O)[C@H](CC2CCCCC2)N(C)C(=O)CN(C)C(=O)CN(C)C1=O [Compound 1741] ([NMeL]I[Sar][Sar][NMeCha][Sar][hPhe(3-Cl-4-CF3)]P[Ac5c][NMeAbu][NMeD]-Piperidide; lactam N-11)	< 6.30
CC[C@H](C)[C@@H]1NC(=O)[C@H](CC(C)C)N(C)C(=O)C[C@@H](C(=O)N(C)C)N(C)C(=O)[C@H]([C@@H](C)CC)N(C)C(=O)[C@H](C)NC(=O)[C@H](Cc2ccncc2)N(C)C(=O)[C@H](CCc2ccc(C(F)(F)F)c(Cl)c2)NC(=O)CN(C)C(=O)[C@H](Cc2ccc(C)cc2)N(C)C(=O)[C@@H]2CCN2C(=O)[C@H](C)N(C)C1=O [Compound 1973] ([NMeL]I[NMeA][Aze][NMePhe(4-Me)][Sar][hPhe(3-Cl-4-CF3)][NMe4Pal]A[NMeI][NMeD]-NMe2; lactam N-11)	< 6.30
CCCC[C@@H]1NC(=O)[C@H](Cc2cccc(I)c2)NC(=O)CN(C)C(=O)[C@H](Cc2ccc(Cl)cc2)N(C)C(=O)CN(C)C(=O)CN(C)C(=O)[C@H]([C@@H](C)CC)NC(=O)[C@H](CC(C)C)N(C)C(=O)C[C@@H](C(=O)N2CCCCC2)N(C)C(=O)[C@H](CC2CCC2)NC(=O)C(C)(C)N(C)C1=O [Compound 1422] ([NMeL]I[Sar][Sar][NMePhe(4-Cl)][Sar][Phe(3-I)][Nle][NMeAib][Cba][NMeD]-Piperidide; lactam N-11)	< 6.30
CCCC[C@@H]1NC(=O)[C@H](Cc2cccc(I)c2)NC(=O)CN(C)C(=O)[C@H](Cc2ccc(Cl)cc2)N(C)C(=O)CN(C)C(=O)CN(C)C(=O)[C@H]([C@@H](C)CC)NC(=O)[C@H](CC(C)C)N(C)C(=O)C[C@@H](C(=O)N2CCCCC2)N(C)C(=O)[C@H](CC(C)C)NC(=O)[C@H](Cc2ccc(OC(F)(F)F)cc2)N(C)C1=O [Compound 819] ([NMeL]I[Sar][Sar][NMePhe(4-Cl)][Sar][Phe(3-I)][Nle][NMeY](CF3)L[NMeD]-Piperidide; lactam N-11)	< 6.30
CC(C)C[C@H]1C(=O)N[C@@H](C2CCCCC2)C(=O)N(C)CC(=O)N(C)CC(=O)N(C)[C@@H](CC2CCCCC2)C(=O)N(C)CC(=O)N[C@@H](CCc2ccc(C(F)(F)F)c(F)c2)C(=O)N2CCC[C@H]2C(=O)NC2(CCCC2)C(=O)N(C)[C@@H](CC(C)C)C(=O)N[C@H](C)CC(=O)N1C [Compound 1527] (cyclo([Ac5c][NMeL][d(β3hA)][NMeL][Chg][Sar][Sar][NMeCha][Sar][hPhe(3-F,4-CF3)]P))	< 6.30
